Source: US8133685B2, “AMPK modulation as a method of regulating stem cell and cancer stem cell proliferation, self-renewal and differentiation” (Washington University, priority 2008, dated 2012)

Legend:
[1] = system: Neural Stem and Progenitor cells (NPCs); assay: NPC proliferation: count of trypan blue negative (live) cells after 48 hours of growth; type: cell-based, mouse; conditions: E12.5 forebrain wildtype NPCs, vs DMSO, p<0.001
Description: FIG. 26. […] Embryonic day 12.5 forebrain wildtype NPCs were cultured for 4 days and seeded as single cells in presence of DMSO (control), or the AMPK inhibitors Compound C (10 μM) and Adenine 9-β-D-arabinofuranoside (Ara A 1 mM). Following 48 hours of growth in medium supplemented with EGF ([…]) and bFGF ([…]), neurospheres were trypsinized and trypan blue negative (live) cells were counted on a hemocytometer. * p<0.001
Neurospheres were dissected from E12.5 CNS telencephalic lobes and cultured in neurobasal medium supplemented with B27 and N2, as described previously (Dasgupta, B. and Gutmann, D. H., J. Neurosci. 25, 5584-5594, 2005). […] At each time point, resulting neurospheres were trypsinized and counted on a hemocytometer. For self-renewal assays, single neurospheres were picked up by pipette and neurosphere diameter was measured individually under microscope. Ten similar-sized neurospheres of each genotype were triturated individually before plating, and the number of resulting secondary neurospheres generated per primary neurosphere was counted after 6 days. Neurosphere diameters were measured using Metamorph software. […] Briefly, NPCs were pulse labeled with […] CFSE at 37° C. for 15 min, washed, and one-half of the cells were analyzed by FACS, while the other half was analyzed after 4 days of growth. […]

AMPK = assay: Immunoblot of pAMPK and pRb in WT NPCs after growth factor (EGF and FGF) withdrawal and re-administration; type: cell-based, mouse; conditions: growth factors withdrawn 2 h, re-administered 1 h in presence of compound C (CC; 5 mM per FIG. 54 legend)
From the text: FIG. 54. This figure illustrates that energy restriction and growth factor signaling utilize the AMPK-Rb axis to enhance NPC proliferation. […] (B and C) Proliferation assay of WT NPCs (B) and β1−/−NPCs (C) cultured for 48 hr under glucose-limiting conditions (Cont=25 Mm glucose, which is the amount in neurobasal medium). Data are representative of three independent experiments (#p=0.07; *p % 0.005). Error bars indicate SD. (D and E) Densitometric analysis using phospho-specific AMPKα^Thr172, Rb^Ser800/804, ACC^Ser79, and pan AMPKα, Rb, and ACC antibodies. AU, arbitrary units.
Cultured NPCs or MEFs were lysed with MAPK lysis buffer (20 mM Tris-HCL, pH 7.5, 150 mM, NaCl, 1 mM EGTA, 1 mM EDTA, 1% TritonX-100, 2.5 mM sodium pyrophosphate, 1 mM β-glycerophosphate, 1 mM sodium vanadate, 1 mM PMSF, 1 mM DTT and protease inhibitor cocktail). AMPK was immunoprecipitated with AMPKα1/2 antibody (Cell Signaling Technology), Rb was immunoprecipitated with Rb antibody (Santa Cruz Biotechnology, Santa Cruz, Calif.) and cyclinD1/D2 (associated with CDK4/6) was immunoprecipitated with CyclinD1 and CyclinD2 antibodies (Cell Signaling Technology). […] The immunoprecipitated proteins were analyzed by standard immunoblot analysis. […]

WT NPCs = assay: Proliferation assay of WT NPCs cultured 48 hr under glucose-limiting conditions; type: cell-based, mouse; conditions: 2.5-25 mM glucose
Description: FIG. 54. This figure illustrates that energy restriction and growth factor signaling utilize the AMPK-Rb axis to enhance NPC proliferation. (A) Densitometric analysis of WT NPCs using indicated antibodies after 2-hr growth factor stimulation in the presence or absence of AMPK inhibitor compound C (CC; […]). (B and C) Proliferation assay of WT NPCs (B) and β1−/−NPCs (C) cultured for 48 hr under glucose-limiting conditions (Cont=25 Mm glucose, which is the amount in neurobasal medium). Data are representative of three independent experiments (#p=0.07; *p % 0.005). Error bars indicate SD. […]
Neurospheres were dissected from E12.5 CNS telencephalic lobes and cultured in neurobasal medium supplemented with B27 and N2, as described previously (Dasgupta, B. and Gutmann, D. H., J. Neurosci. 25, 5584-5594, 2005). […] At each time point, resulting neurospheres were trypsinized and counted on a hemocytometer. For self-renewal assays, single neurospheres were picked up by pipette and neurosphere diameter was measured individually under microscope. Ten similar-sized neurospheres of each genotype were triturated individually before plating, and the number of resulting secondary neurospheres generated per primary neurosphere was counted after 6 days. Neurosphere diameters were measured using Metamorph software. […]

Rb-E2F1 = assay: Immunoprecipitation with Rb antibody and Western blot with E2F1 antibody from NPCs; type: cell-based, mouse; design: dose or concentration left out as unconfirmed; conditions: NPCs grown in indicated glucose concentration
Description: FIG. 56. This figure illustrates that energy restriction and growth factor signaling utilize the AMPK-Rb axis to enhance NPC proliferation. (A) Immunoprecipitation assay using Rb antibody and Western blot with E2F1 antibody from NPCs grown in the indicated glucose concentration in the absence or presence of CC ([…]). (B) Immunohistochemistry of saggital sections of E14.5 wildtype and β1−/− body using pHistoneH3 antibody (red).
Cultured NPCs or MEFs were lysed with MAPK lysis buffer (20 mM Tris-HCL, pH 7.5, 150 mM, NaCl, 1 mM EGTA, 1 mM EDTA, 1% TritonX-100, 2.5 mM sodium pyrophosphate, 1 mM β-glycerophosphate, 1 mM sodium vanadate, 1 mM PMSF, 1 mM DTT and protease inhibitor cocktail). […] The immunoprecipitated proteins were analyzed by standard immunoblot analysis. […]
AMPK is integrally involved in regulating cellular energy homeostasis and is activated by low cellular ATP levels, such as occurs by limiting oxygen or glucose supplies or exercise, conditions that enhance proliferative capacity of stem cells (Burgers et al., Exp. Brain Res. 188, 33-43, 2008; Fu et al., Diabetologia 49, 1027-1038, 2006; Stolzing et al., Rejuvenation Res. 9, 31-35, 2006). To explore whether the proliferative effects of glucose restriction are manifested through activation of the AMPK-Rb axis, we monitored the growth of WT NPCs cultured in 2.5-25 mM (the amount present in neurobasal medium) glucose for 48 hr. […]

AMPK holoenzyme = assay: Nonradioactive in vitro kinase assay: immunoprecipitated AMPK holoenzyme phosphorylating recombinant Rb fusion protein (residues 701-928); type: biochemical, mouse; conditions: AMPK immunoprecipitated from WT NPCs, phospho-Rb800/804 immunoblot
Description: Nonradioactive in vitro kinase assay was performed as previously described (Lee et al., Nature 447, 1017-1020, 2007), with minor modifications. Briefly, WT NPCs were lysed with MAPK buffer, and AMPK was immunoprecipitated from WT NPCs with AMPKα1/2 antibody, washed with a buffer containing 10 mM Tris-Hcl (pH 7.5) and 0.5 M LiCl, and suspended in kinase buffer containing 0.5 mM ATP. CyclinD1/D2 (associated with CDK4/6) was immunoprecipitated with cyclinD1 and cyclinD2 antibodies. Reactions were carried out at 30° C. for 1 hr by adding RB-C fusion protein (residues 701-928; Cell Signaling Technology, Beverly, Mass.) to the reaction mix. Reaction was terminated by adding 6× Laemmli buffer and boiling for 5 min. Samples were resolved in 10% SDS-PAGE, and Western blot analysis was performed with phospho-RbSer^800/804 (Ser^807/811 in human) antibody (Cell Signaling Technology).
The CDK-cyclin D complex is known to phosphorylate Rb at Ser804. […] CDK4/6, which exist in complexes with cyclinD1/D2, were immunoprecipitated using cyclin D1/2 antibodies, and the activity was measured by nonradioactive in vitro kinase assays using bacterially produced Rb fusion protein (residues 701-928) as the substrate. […] In these experiments, phosphorylation was monitored by immunoblot using phosphor-Rb800/804 antibody. […]

With `Nc1ncnc2c1ncn2[C@@H]1O[C@H](CO)[C@@H](O)[C@@H]1O` [Ara A, Adenine 9-β-D-arabinofuranoside] the “proliferation of NPCs (live cell count)” value ([1]; 1 mM) was “drastically reduces proliferation”.

With `c1cc(-c2cnn3cc(-c4ccc(OCCN5CCCCC5)cc4)cnc23)ccn1` [Compound C, 6-[4-(2-piperidin-1-ylethoxy)-phenyl]-3-pyridin-4-ylpyrazolo[1,5-α]pyrimidine] the “increase in phosphoAMPK (pAMPK Thr172) on EGF and FGF re-administration” value (AMPK) was “no increase”, the “increase in phosphoRb (Ser800/804) on EGF and FGF re-administration” value (AMPK) was “no increase” and the “NPC growth stimulation by low glucose” value (WT NPCs) was “not observed”. The neurosphere growth (WT NPCs) was “severely inhibited”, the “Rb sequestration of E2F1 (Rb-bound E2F1)” value (Rb-E2F1) was “higher levels” and the “proliferation of NPCs (live cell count)” value ([1]; 10 μM) was “drastically reduces proliferation”. The “AMPK phosphorylation of Rb at Ser804” value (AMPK holoenzyme) was “could be inhibited”.
